According to patent US20260027101A1, “BACTERIAL TOPOISOMERASE INHIBITORS” (priority 2022, published 2026):
≈ marks a conversion by molar mass, not a printed value.

How the values were obtained:
Assay type in all cases: cell-based
[1] = tested on: Staphylococcus aureus M121K (29213-derived strain, GyrA substitution); assay: microbe, parasite or virus in culture; settings: read-out: MIC against Staphylococcus aureus M121K
Procedure: (§1) Minimum inhibitory concentrations (MICs) were determined in triplicate according to Clinical and Laboratory Standards Institute (CLSI) guidelines using one or more strains of S. aureus or selected Gram-negative bacteria. […] Compounds were also assayed using a USA300 (Hidron, A. I., et al., Emergence of Community-Acquired Meticillin-Resistant Staphylococcus aureus Strain USA300 as a Cause of Necrotising Community-Onset Pneumonia. Lancet Infect. Dis. 2009, 9. 384-392) isolate of MRSA as well as a S. aureus strain isolated from a cystic fibrosis patient.

[2] = tested on: Staphylococcus aureus D83N (29213-derived strain, GyrA substitution); assay: microbe, parasite or virus in culture; settings: read-out: MIC against Staphylococcus aureus D83N
Procedure: as §1

[3] = tested on: Salmonella enterica 14028 ΔtolC (efflux-deficient strain); assay: microbe, parasite or virus in culture; settings: Salmonella enterica, read-out: MIC against Salmonella enterica 14028 ΔtolC
Procedure: as §1

[4] = tested on: Staphylococcus aureus CF isolate; assay: MIC, S. aureus cystic fibrosis isolate (CLSI); settings: read-out: MIC against Staphylococcus aureus CF isolate
Procedure: as §1

[5] = tested on: Pseudomonas aeruginosa ATCC 27853; assay: MIC, Pseudomonas aeruginosa ATCC 27853; settings: ATCC27853, read-out: MIC against Pseudomonas aeruginosa ATCC 27853
Procedure: as §1

[6] = tested on: Salmonella enterica ATCC 14028; assay: MIC, Salmonella enterica ATCC 14028; settings: ATCC14028, read-out: MIC against Salmonella enterica ATCC 14028
Procedure: as §1

[7] = tested on: Staphylococcus aureus ATCC 29213; assay: MIC, S. aureus ATCC 29213 (CLSI); settings: ATCC29213, read-out: MIC against Staphylococcus aureus ATCC 29213
Procedure: as §1

[8] = tested on: Staphylococcus aureus USA300 (MRSA isolate); assay: MIC, S. aureus USA300 MRSA isolate (CLSI); settings: read-out: MIC against Staphylococcus aureus USA300
Procedure: as §1

| SMILES | MIC [1] [µg/mL] | MIC [2] [µg/mL] | MIC [3] [µg/mL] | other results |
| --- | --- | --- | --- | --- |
| COc1ccc2ncc(F)c(CCN3CCC(C(O)C(O)c4ccc(C)cc4)CC3)c2n1 (single isomer, unassigned) [Example 16, 1-(1-(2-(3-fluoro-6-methoxy-1,5-naphthyridin-4-yl)ethyl)piperidin-4-yl)-2-(p-tolyl)ethane-1,2-diol] | 4 (≈ 9.1 µM) | – | – | – |
| COc1ccc2ncc(F)c(CCN3CCC([C@H](O)[C@@H](O)c4ccc(C)cc4)CC3)c2n1 [Example 7, (1S,2S)-1-(1-(2-(3-fluoro-6-methoxy-1,5-naphthyridin-4-yl)ethyl)piperidin-4-yl)-2-(p-tolyl)ethane-1,2-diol] | > 32 | > 32 | – | – |
| COc1ccc2ncc(F)c(CCN3CCC([C@H](O)[C@@H](O)c4ccc5c(c4)NC(=O)CO5)CC3)c2n1 [Example 9, 6-((1S,2S)-2-(1-(2-(3-fluoro-6-methoxy-1,5-naphthyridin-4-yl)ethyl)piperidin-4-yl)-1,2-dihydroxyethyl)-2H-benzo[b][1,4]oxazin-3(4H)-one] | > 32 | > 32 | 0.25 (≈ 0.503 µM) | – |
| COc1ccc2ncc(F)c(CCN3CCC(C(O)C(O)c4ccc(C)cc4)CC3)c2n1 (single isomer, unassigned) [Example 13, 1-(1-(2-(3-fluoro-6-methoxy-1,5-naphthyridin-4-yl)ethyl)piperidin-4-yl)-2-(p-tolyl)ethane-1,2-diol] | – | > 32 | – | – |
| COc1ccc2ncc(F)c(CCN3CCC(CCc4ccc5c(c4)NC(=O)CO5)CC3)c2n1 [Example 21, 6-(2-(1-(2-(3-fluoro-6-methoxy-1,5-naphthyridin-4-yl)ethyl)piperidin-4-yl)ethyl)-2H-benzo[b][1,4]oxazin-3(4H)-one] | 64 (≈ 138 µM) | – | – | – |
| COc1ccc2ncc(F)c(CCN3CCC([C@@H](O)[C@H](O)c4ccc5c(c4)NC(=O)CO5)CC3)c2n1 [Example 6, 6-((1R,2R)-2-(1-(2-(3-fluoro-6-methoxy-1,5-naphthyridin-4-yl)ethyl)piperidin-4-yl)-1,2-dihydroxyethyl)-2H-benzo[b][1,4]oxazin-3(4H)-one] | > 32 | > 32 | – | – |
| COc1ccc2ncc(F)c(CCN3CCC(C(N)Cc4ccc5c(c4)NC(=O)CO5)CC3)c2n1 (stereo not drawn) [Example 30, 6-(2-amino-2-(1-(2-(3-fluoro-6-methoxy-1,5-naphthyridin-4-yl)ethyl)piperidin-4-yl)ethyl)-2H-benzo[b][1,4]oxazin-3(4H)-one] | > 64 | – | – | – |
| COc1ccc2ncc(F)c(CCN3CCC(C(N)Cc4ccc(C)cc4)CC3)c2n1 (stereo not drawn) [Example 28, 1-(1-(2-(3-fluoro-6-methoxy-1,5-naphthyridin-4-yl)ethyl)piperidin-4-yl)-2-(p-tolyl)ethan-1-amine] | > 32 | 32 (≈ 75.7 µM) | – | – |
| COc1ccc2ncc(F)c(CCN3CCC(C(O)Cc4ccc5c(c4)OCC(=O)N5)CC3)c2n1 (stereo not drawn) [Example 27, 7-(2-(1-(2-(3-fluoro-6-methoxy-1,5-naphthyridin-4-yl)ethyl)piperidin-4-yl)-2-hydroxyethyl)-2H-benzo[b][1,4]oxazin-3(4H)-one] | 32 (≈ 66.6 µM) | – | ≤ 0.125 | – |
| COc1ccc2ncc(F)c(CCN3CCC(/C=C/c4ccc(C)cc4)CC3)c2n1 [Example 1, (E)-7-fluoro-2-methoxy-8-(2-(4-(4-methylstyryl)piperidin-1-yl)ethyl)-1,5-naphthyridine] | 2 to 4 (≈ 4.93 to 9.86 µM) | – | 0.5 to 1 (≈ 1.23 to 2.47 µM) | – |
| COc1ccc2ncc(F)c(CCN3CCC([C@@H](O)[C@H](O)c4ccc5c(c4)OCCO5)CC3)c2n1 [Example 5, (1R,2R)-1-(2,3-dihydrobenzo[b][1,4]dioxin-6-yl)-2-(1-(2-(3-fluoro-6-methoxy-1,5-naphthyridin-4-yl)ethyl)piperidin-4-yl)ethane-1,2-diol] | – | – | 0.5 (≈ 1.03 µM) | – |
| COc1ccc2ncc(F)c(CCN3CCC(/C=C\c4ccc(C)cc4)CC3)c2n1 [Example 10, (Z)-7-fluoro-2-methoxy-8-(2-(4-(4-methylstyryl)piperidin-1-yl)ethyl)-1,5-naphthyridine] | 32 (≈ 78.9 µM) | 32 (≈ 78.9 µM) | 8 (≈ 19.7 µM) | – |
| COc1ccc2ncc(F)c(CCN3CCC(C(O)Cc4ccc5c(c4)OCCO5)CC3)c2n1 (stereo not drawn) [Example 26, 2-(2,3-dihydrobenzo[b][1,4]dioxin-6-yl)-1-(1-(2-(3-fluoro-6-methoxy-1,5-naphthyridin-4-yl)ethyl)piperidin-4-yl)ethan-1-ol] | 4 (≈ 8.56 µM) | 4 (≈ 8.56 µM) | – | – |
| COc1ccc2ncc(F)c(CCN3CCC([C@@H](O)[C@H](O)c4ccc(C)cc4)CC3)c2n1 [Example 4, (1R,2R)-1-(1-(2-(3-fluoro-6-methoxy-1,5-naphthyridin-4-yl)ethyl)piperidin-4-yl)-2-(p-tolyl)ethane-1,2-diol] | – | – | 0.5 to 1 (≈ 1.14 to 2.28 µM) | – |
| COc1ccc2ncc(F)c(CCN3CCC(C(O)C(O)c4ccc5c(c4)NC(=O)CO5)CC3)c2n1 (single isomer, unassigned) [Example 15, 6-(-2-(1-(2-(3-fluoro-6-methoxy-1,5-naphthyridin-4-yl)ethyl)piperidin-4-yl)-1,2-dihydroxyethyl)-2H-benzo[b][1,4]oxazin-3(4H)-one] | – | – | 0.5 (≈ 1.01 µM) | – |
| COc1ccc2ncc(F)c(CCN3CCC(C(N)Cc4ccc5c(c4)OCCO5)CC3)c2n1 (stereo not drawn) [Example 29, 2-(2,3-dihydrobenzo[b][1,4]dioxin-6-yl)-1-(1-(2-(3-fluoro-6-methoxy-1,5-naphthyridin-4-yl)ethyl)piperidin-4-yl)ethan-1-amine] | > 16 | > 16 | – | – |
| COc1ccc2ncc(F)c(CCN3CCC(C(O)Cc4ccc(C)cc4)CC3)c2n1 (stereo not drawn) [Example 25, 1-(1-(2-(3-fluoro-6-methoxy-1,5-naphthyridin-4-yl)ethyl)piperidin-4-yl)-2-(p-tolyl)ethan-1-ol] | 8 (≈ 18.9 µM) | 8 (≈ 18.9 µM) | 1 (≈ 2.36 µM) | – |
| COc1ccc2ncc(F)c(CCN3CCC(C(=O)Cc4ccc5c(c4)OCCO5)CC3)c2n1 [Example 23, 2-(2,3-dihydrobenzo[b][1,4]dioxin-6-yl)-1-(1-(2-(3-fluoro-6-methoxy-1,5-naphthyridin-4-yl)ethyl)piperidin-4-yl)ethan-1-one] | > 32 | 32 (≈ 68.7 µM) | – | MIC [4]: 8 µg/mL (≈ 17.2 µM); MIC [5]: > 64 µg/mL; MIC [6]: > 64 µg/mL |
| CN[C@H](CC(C)C)C(=O)N[C@H]1C(=O)N[C@@H](CC(N)=O)C(=O)N[C@H]2C(=O)N[C@H]3C(=O)N[C@H](C(=O)N[C@H](C(=O)O)c4cc(O)cc(O)c4-c4cc3ccc4O)[C@H](O)c3ccc(c(Cl)c3)Oc3cc2cc(c3O[C@@H]2O[C@H](CO)[C@@H](O)[C@H](O)[C@H]2O[C@H]2C[C@](C)(N)[C@H](O)[C@H](C)O2)Oc2ccc(cc2Cl)[C@H]1O [vancomycin, reference compound] | 1 (≈ 0.69 µM) | 1 (≈ 0.69 µM) | – | MIC [7]: 1 to 2 µg/mL (≈ 0.69 to 1.38 µM); MIC [8]: 1 µg/mL (≈ 0.69 µM); MIC [4]: 1 µg/mL (≈ 0.69 µM) |
| COc1ccc2ncc(F)c(CCN3CCC(CCc4ccc(C)cc4)CC3)c2n1 [Example 19, 7-fluoro-2-methoxy-8-(2-(4-(4-methylphenethyl)piperidin-1-yl)ethyl)-1,5-naphthyridine] | > 16 | 4 (≈ 9.82 µM) | – | – |
| COc1ccc2ncc(F)c(CCN3CCC(CCc4ccc5c(c4)OCCO5)CC3)c2n1 [Example 20, 8-(2-(4-(2-(2,3-dihydrobenzo[b][1,4]dioxin-6-yl)ethyl)piperidin-1-yl)ethyl)-7-fluoro-2-methoxy-1,5-naphthyridine] | > 8 | 8 (≈ 17.7 µM) | 0.25 (≈ 0.554 µM) | – |
